From ChEMBL document CHEMBL1201862, “PubChem BioAssay data set” (2004)
Activity calls are given as the source filed them.

Experiments:
[1] = Trypanosoma cruzi growth suppression in host cells – NIH3T3 host cells, beta-gal luminescence, confirmation (AID 2044); format: functional, cell-based;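 also: intracellular parasites grown in NIH/3T3 mouse fibroblasts as host cells; luminescent beta-galactosidase reporter signal from transgenic T. cruzi replicating inside host cells; inhibitors lower the luminescence signal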
[2] = NIH3T3 cell viability loss – ATP luminescence, mouse fibroblasts, counter-screen, dose response (AID 2010); format: functional, cell-based;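 also: cells exposed to compound for about 90 hours before reading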
[3] = biological target: Cytochrome P450 2C19 (Homo sapiens, UniProt P33261); assay: Cytochrome panel assay with activity outcomes. Panel member name: p450-cyp2c19 Compounds with AC50 equal or less than 10 uM are considered active; format: functional
[4] = biological target: Cytochrome P450 2C9 (Homo sapiens, UniProt P11712)
[5] = biological target: T1, Cytochrome P450 1A2 (Homo sapiens, UniProt P05177);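 also: PubChem cytochrome P450 panel assay, CYP1A2 panel member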
T1 sequence (P05177 whole entry): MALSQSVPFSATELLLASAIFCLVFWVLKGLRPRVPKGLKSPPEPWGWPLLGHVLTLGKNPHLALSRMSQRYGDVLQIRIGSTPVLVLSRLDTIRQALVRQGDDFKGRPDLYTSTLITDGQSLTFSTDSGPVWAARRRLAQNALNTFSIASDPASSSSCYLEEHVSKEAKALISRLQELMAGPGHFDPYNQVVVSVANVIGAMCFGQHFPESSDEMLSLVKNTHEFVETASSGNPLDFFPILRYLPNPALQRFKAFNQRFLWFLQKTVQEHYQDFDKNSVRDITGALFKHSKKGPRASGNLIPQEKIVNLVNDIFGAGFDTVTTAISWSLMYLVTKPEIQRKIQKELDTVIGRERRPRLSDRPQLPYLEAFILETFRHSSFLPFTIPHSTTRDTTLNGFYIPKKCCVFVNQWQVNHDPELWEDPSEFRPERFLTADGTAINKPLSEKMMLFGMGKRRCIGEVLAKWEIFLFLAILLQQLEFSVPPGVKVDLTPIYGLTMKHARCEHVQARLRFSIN

[6] = system: H9c2; assay: cells; format: functional, cell-based; details: Rattus norvegicus, H9c2, Myocardium;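 also: confirmatory concentration-response retest of ultra-high-throughput screening hits for modulation of myocardial damage; cell death induced by hydrogen peroxide oxidative stress; compound pretreatment for 60 min then peroxide exposure for 2 h; potency is for protecting the cells against peroxide damage rather than for killing them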
[7] = biological target: T2, Corticotropin-releasing factor receptor 2/Corticotropin-releasing factor-binding protein (Homo sapiens, UniProt P24387+Q13324); assay: activators of CRF receptor 2 with binding protein – uHTS hits, confirmation (AID 602473); format: functional; details: read-out: EC50_Mean
T2 sequence (Q13324 whole entry): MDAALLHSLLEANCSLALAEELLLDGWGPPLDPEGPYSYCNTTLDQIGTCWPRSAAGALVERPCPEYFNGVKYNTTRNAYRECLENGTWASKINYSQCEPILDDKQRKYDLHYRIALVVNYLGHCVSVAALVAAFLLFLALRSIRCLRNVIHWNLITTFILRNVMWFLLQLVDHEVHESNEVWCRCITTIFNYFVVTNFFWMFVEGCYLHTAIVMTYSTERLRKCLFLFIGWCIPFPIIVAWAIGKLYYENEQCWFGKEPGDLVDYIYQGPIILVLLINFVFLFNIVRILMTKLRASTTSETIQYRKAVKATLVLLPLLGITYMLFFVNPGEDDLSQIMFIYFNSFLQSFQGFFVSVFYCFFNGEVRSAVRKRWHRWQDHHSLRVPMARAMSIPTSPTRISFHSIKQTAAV
T2 sequence (P24387 whole entry): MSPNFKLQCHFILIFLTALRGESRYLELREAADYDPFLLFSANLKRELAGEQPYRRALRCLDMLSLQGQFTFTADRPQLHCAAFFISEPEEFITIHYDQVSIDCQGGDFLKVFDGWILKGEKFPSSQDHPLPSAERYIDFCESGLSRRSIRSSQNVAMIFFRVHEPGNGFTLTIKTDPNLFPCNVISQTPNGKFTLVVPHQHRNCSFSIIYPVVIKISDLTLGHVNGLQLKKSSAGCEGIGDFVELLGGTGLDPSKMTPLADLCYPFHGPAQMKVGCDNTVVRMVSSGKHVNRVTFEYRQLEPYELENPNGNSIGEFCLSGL

Cytochrome P450 2C9, sequence (P11712 whole entry): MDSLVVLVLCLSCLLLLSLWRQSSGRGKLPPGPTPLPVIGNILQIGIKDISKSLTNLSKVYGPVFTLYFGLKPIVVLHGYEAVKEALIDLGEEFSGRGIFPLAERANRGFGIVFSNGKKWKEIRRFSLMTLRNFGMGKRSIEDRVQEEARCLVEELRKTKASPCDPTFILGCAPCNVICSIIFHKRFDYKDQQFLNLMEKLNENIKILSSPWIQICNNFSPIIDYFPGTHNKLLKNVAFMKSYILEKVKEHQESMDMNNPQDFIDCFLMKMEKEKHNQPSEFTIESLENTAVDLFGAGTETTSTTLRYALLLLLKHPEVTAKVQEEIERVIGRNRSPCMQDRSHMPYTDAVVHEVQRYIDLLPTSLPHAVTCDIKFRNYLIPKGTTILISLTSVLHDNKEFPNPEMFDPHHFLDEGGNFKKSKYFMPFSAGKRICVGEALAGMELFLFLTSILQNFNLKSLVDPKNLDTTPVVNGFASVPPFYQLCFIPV
Cytochrome P450 2C19, sequence (P33261 whole entry): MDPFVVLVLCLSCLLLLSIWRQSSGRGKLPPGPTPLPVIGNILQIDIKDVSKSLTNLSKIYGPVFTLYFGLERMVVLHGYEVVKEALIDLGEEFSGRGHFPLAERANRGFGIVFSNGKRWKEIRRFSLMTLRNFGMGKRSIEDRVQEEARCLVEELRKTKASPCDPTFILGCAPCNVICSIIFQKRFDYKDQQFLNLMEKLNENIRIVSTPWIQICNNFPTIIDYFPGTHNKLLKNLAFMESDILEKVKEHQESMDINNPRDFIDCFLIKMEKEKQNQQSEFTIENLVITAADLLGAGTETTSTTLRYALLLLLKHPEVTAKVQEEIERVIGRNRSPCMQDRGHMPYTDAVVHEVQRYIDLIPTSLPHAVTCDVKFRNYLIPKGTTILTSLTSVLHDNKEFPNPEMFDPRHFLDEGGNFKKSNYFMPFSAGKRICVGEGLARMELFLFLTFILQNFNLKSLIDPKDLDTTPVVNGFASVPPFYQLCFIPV

## N=C(N)N/N=C/c1ccc(Br)cc1
[1]
  EC50: 0.141 µM (active)
[2]
  EC50: 6.37 µM (active)

## CSc1ccc2c(c1)N(CC[C@H]1CCCCN1C)c1ccccc1S2
[3]; read-out: AC50
  AC50: 20 µM (inconclusive)

## O=C(Nc1nnc(C2CC2)s1)c1ccc(S(=O)(=O)c2ccccc2)cc1
[4]
  AC50: 0.794 µM (inconclusive)
[3]; read-out: AC50
  AC50: 7.08 µM (inconclusive)

## NC(=O)CNC(=O)[C@@H]1CC2(CC(c3ccccc3)=NO2)CN1C(=O)c1ccc(Br)cc1 (stereo not given in full)
[3]; read-out: AC50
  AC50: 39.8 µM (inconclusive)
[5]
  AC50: 25.1 µM (inconclusive)

## CCOc1cccc(C2C(C(=O)c3ccc(C)o3)=C(O)C(=O)N2Cc2ccncc2)c1 (stereo not given)
[3]; read-out: AC50
  AC50: 39.8 µM (inconclusive)
[5]
  AC50: 39.8 µM (inconclusive)

## O=C(Nc1nc2c(s1)CCCC2)c1ccc(S(=O)(=O)N2CCCc3ccccc32)cc1
[1]
  EC50: 2.07 µM (active)
[2]
  EC50: > 60 µM (inconclusive)

## Cc1ccc(C(C(=O)NCc2ccccc2)N(Cc2cccs2)C(=O)c2ccc3c(c2)OCCO3)cc1 (stereo not given)
[6]
  IC50: > 79 µM (inactive)

## CCN(CC)CCNc1nc(-c2ccccc2)c2c(c1C#N)CC(C)(C)OC2
[1]
  EC50: 0.332 µM (active)
[2]
  EC50: > 60 µM (not active)

## COc1cc(C(=O)Nc2nc(OC)c(-c3ccccc3)c(OC)n2)cc(OC)c1OC
[6]
  IC50: > 79 µM (inactive)

## O=C(CN(C(=O)Cn1nnc(-c2cccs2)n1)c1cnc2ccccc2c1)NCC1CCCO1 (stereo not given)
[6]
  IC50: 75.1 µM (inactive)

## CN(Cc1c[nH]c2ccccc12)C1CCCCC1
[1]
  EC50: 0.699 µM (active)
[2]
  EC50: 23.9 µM (active)

## COc1ccc(C(=O)NN/C=C/C(=O)c2ccc(Br)cc2)cc1
[6]
  IC50: > 79 µM (inactive)

## O=[N+]([O-])c1ccc(C[S+]([O-])Cc2ccccc2)cc1 (stereo not given)
[5]
  AC50: 3.16 µM (inconclusive)

## O=C(O)CCSCc1ccccc1
[3]
  AC50: inconclusive

## COc1ccc(NC(=O)CN(C)C(=O)Cc2nnc(O)c3ccccc23)cc1
[6]
  IC50: 19.6 µM (active)

## CN(C)C(=O)COC(=O)[C@H](Cc1ccccc1)NC(=O)c1ccco1
[7]
  EC50: 19.4 µM (active)

## CCCCn1c(SC(C)C(N)=O)nc2cc(C(=O)OC)ccc2c1=O (stereo not given)
[4]
  AC50: 8.91 µM (inconclusive)
[3]; read-out: AC50
  AC50: 3.55 µM (inconclusive)

## COc1ccc(-c2csc(NC(=O)c3ccc(OCC(=O)N4CCOCC4)c(OC)c3)n2)cc1OC
[6]
  IC50: > 79 µM (inactive)

## c1csc(CNc2ccnc(-c3ccoc3)n2)c1
[3]; read-out: AC50
  AC50: 31.6 µM (inconclusive)

## Cc1nc2ccccc2c(=O)n1-n1cnnc1
[5]
  AC50: 3.16 µM (inconclusive)

## N[C@@H](Cn1cc(I)c(=O)[nH]c1=O)C(=O)O
[5]
  AC50: 39.8 µM (inconclusive)

## COc1ccc(S(=O)(=O)N(CC(=O)NCC2CCCO2)c2ccc(F)cc2)cc1OC (stereo not given)
[4]
  AC50: 10 µM (inconclusive)
[3]; read-out: AC50
  AC50: 10 µM (inconclusive)

## CC(=O)N(C)c1nnc(-c2cnccn2)s1
[3]
  AC50: inconclusive

## OCCSCc1cc(Cl)cc(Cl)c1O
[4]
  AC50: 3.98 µM (inconclusive)

## CC(C)=CCc1ccc(=O)c(O)cc1C(C)C
[6]
  IC50: > 79 µM (inactive)

## Cc1sc2nc(SCC(=O)N3CCOCC3)nc(O)c2c1C
[6]
  IC50: > 79 µM (inactive)

## N#Cc1c(-c2ccc(F)cc2)cc(-c2ccccc2)nc1SCC(=O)NCC(=O)O
[7]
  EC50: 5.47 µM (active)

## COc1cc(-c2cc(C(=O)Nc3cccc(C(C)=O)c3)c3ccccc3n2)cc(OC)c1OC
[6]
  IC50: > 79 µM (inactive)

## CC(C)N(CCn1c(=S)[nH]c2ccccc2c1=O)C(C)C
[7]
  EC50: 9.1 µM (active)

## O=C(c1ccc(-c2nnc(Nc3ccccc3)c3ccccc23)cc1)N1C[C@H]2C[C@H](C1)c1cccc(=O)n1C2
[4]
  AC50: 2 µM (inconclusive)
[5]
  AC50: 14.1 µM (inconclusive)

## CCCCc1nc(O)c2c3c(sc2n1)CCC3
[6]
  IC50: > 79 µM (inactive)

## O=C(CSc1nnc(COc2ccc(F)cc2)o1)N1c2ccccc2CCc2ccccc21
[1]
  EC50: 1 µM (active)
[2]
  EC50: > 60 µM (not active)

## CCCS(=O)(=O)N1CCN(CC2CC=CCC2)CC1 (stereo not given)
[5]
  AC50: 12.6 µM (inconclusive)

## O=C(CNC(=S)N(Cc1ccccc1)Cc1cccnc1)NC1CCCCC1
[1]
  EC50: 0.516 µM (active)
[2]
  EC50: 11.1 µM (active)

## COc1ccc(-c2nc3cnc(Oc4ccccc4)nc3n(Cc3cccs3)c2=O)cc1
[4]
  AC50: 1.26 µM (inconclusive)

## Cc1ccc(C(=O)N/C(=C\c2ccc(-c3ccc([N+](=O)[O-])cc3)o2)C(=O)NC2CCS(=O)(=O)C2)cc1 (stereo not given)
[7]
  EC50: 8.22 µM (active)

## N#CCCn1c(=O)c(CCc2ccccc2)nc2cnc(Oc3ccccc3)nc21
[5]
  AC50: 12.6 µM (inconclusive)

## NS(=O)(=O)c1cc2c(cc1C(F)(F)F)N[C@H](Cc1ccccc1)NS2(=O)=O
[5]
  AC50: 15.8 µM (inconclusive)

## COc1ccc(-c2cc(C(=O)NC(C)c3ccccn3)c3ccccc3n2)cc1OC (stereo not given)
[6]
  IC50: > 79 µM (inactive)

## COc1ccc(-c2nc3cnc(N4CCN(C)CC4)nc3n(C3CC3)c2=O)cc1
[5]
  AC50: 20 µM (inconclusive)

## COc1ccc(NC(=O)c2cc(-c3cccnc3)nc3c(C)c(C)ccc23)c(OC)c1
[1]
  EC50: 2.69 µM (active)
[2]
  EC50: > 60 µM (not active)

## CC(C)(O)c1cn(-c2nonc2N)nn1
[3]; read-out: AC50
  AC50: 3.16 µM (inconclusive)
[5]
  AC50: 39.8 µM (inconclusive)

## CC(=O)Nc1ccc(Sc2ncccc2C(=O)Nc2ccc(OC(F)(F)F)cc2)cn1
[7]
  EC50: 2.96 µM (active)

## O=C(Cc1nnc(O)c2ccccc12)NCc1ccccn1
[6]
  IC50: 35.7 µM (inactive)

## CC(C)(C)C(C(Oc1ccc(Cl)cc1)n1cncn1)n1nnnc1C(c1cccc(Cl)c1)N1CCCCC1 (stereo not given)
[1]
  EC50: 1.59 µM (active)
[2]
  EC50: > 60 µM (not active)

## O=C(COc1ccc(F)cc1)Nc1cc(S(=O)(=O)N2CCCCC2)ccc1N1CCCCC1
[1]
  EC50: 2.15 µM (active)
[2]
  EC50: > 60 µM (not active)

## CCCCNC(=O)c1cc2c(=O)n3cccc(C)c3nc2n(Cc2ccccc2)c1=N
[1]
  EC50: 3.03 µM (active)
[2]
  EC50: > 60 µM (not active)

## COc1cccc(N2CCN(C(=O)Nc3ccc4c(c3)NC(=O)CO4)CC2)c1
[4]
  AC50: 12.6 µM (inconclusive)

## Cc1ncc(CO)c2c1Oc1nc(-c3ccccc3)nc(SCC(=O)N3CCCCC3)c1C2
[6]
  IC50: > 79 µM (inactive)

## CCN(CC)S(=O)(=O)c1cccc(C(=O)N/N=C/c2ccccn2)c1
[6]
  IC50: > 79 µM (inactive)

## CN(Cc1ccco1)c1cc(-c2cccnc2)ncn1
[3]; read-out: AC50
  AC50: 20 µM (inconclusive)

## NC(=O)c1ccccc1OCC(=O)NC12CC3CC(CC(C3)C1)C2
[6]
  IC50: 36.9 µM (inactive)

## CCCCCC(=O)NC(=S)NNC(=O)c1ccc([N+](=O)[O-])cc1
[7]
  EC50: 5.19 µM (active)

## CC(OC(=O)Cn1[nH]c(=O)c2ccccc2c1=O)C(=O)Nc1ccc(F)cc1 (stereo not given)
[6]
  IC50: > 79 µM (inactive)

## C=CCN1C(=O)c2cccc3c(N4CCCCC4)ccc(c23)C1=O
[7]
  EC50: 5.47 µM (active)

## Cc1s/c(=N\C(=O)c2ccco2)n(C)c1-c1ccc(F)cc1
[3]; read-out: AC50
  AC50: 3.55 µM (inconclusive)

## CS(=O)(=O)N1CCC[C@@]2(CCN(C(c3ccccc3)c3ccccc3)C2)C1
[3]; read-out: AC50
  AC50: 3.16 µM (inconclusive)
[5]
  AC50: 25.1 µM (inconclusive)

## N#Cc1ccc(-c2ccc(OCC(O)CN3CCCCC3)cc2)cc1 (stereo not given)
[1]
  EC50: 1.98 µM (active)
[2]
  EC50: 12.1 µM (active)

## COc1cc(-c2cc(NC(C)=O)c3ncc(-c4ccc(F)cc4)n3c2)cc(OC)c1OC
[6]
  IC50: > 79 µM (inactive)

## COc1ccc(OC)c(/C=N/Nc2nncn2/N=C/c2cc(OC)ccc2OC)c1
[6]
  IC50: > 79 µM (inactive)

## COc1ccc(NC(=O)CCCc2nc(O)c3ccccc3n2)cc1Cl
[6]
  IC50: > 79 µM (inactive)

## CCOC(=O)C1CCCN(C(=O)CCCOc2cc(=O)n(C)c3ccccc23)C1 (stereo not given)
[5]
  AC50: 25.1 µM (inconclusive)

## Cc1ccc(OC(F)F)c(NC(=O)Nc2cccc(C(F)(F)F)c2)c1
[1]
  EC50: 2.41 µM (active)
[2]
  EC50: > 60 µM (not active)

## N#CCCn1cc(/C=N/O)c(-c2ccc(Cl)cc2)n1
[4]
  AC50: 15.8 µM (inconclusive)

## O=c1[nH]c2c(S)nc(O)nc2n1-c1ccccc1
[3]
  AC50: inconclusive
